Assay results from patent EP4001279A1, “NOVEL SPIROPYRROLIDINE DERIVED ANTIVIRAL AGENTS” (Enanta Pharmaceuticals, Inc., priority 2020, dated 2022).

Tested on: 229E human corona virus (hCoV)
Experiment: 229E live virus assay (CPE, ATPlite readout in MRC-5 cells)
Type: cell-based, hCoV-229E
Conditions: Human coronavirus 229E, MRC5, hCoV-229E live virus, MOI 0.05, ATPlite readout, run in duplicate

Compound | EC50 [nM]
CC(C)C[C@@H](C(=O)N1C[C@]2(C[C@H]1C#N)C(=O)Nc1ccccc12)N(C)C(=O)c1n[nH]c(-c2ccccc2)n1 [Example 288] | < 100
COc1cc(C(=O)N(C)[C@@H](CC(C)C)C(=O)N2C[C@]3(C[C@H]2C#N)C(=O)Nc2ccccc23)cc2cn(C3(C)CC3)nc12 [Example 319] | < 100
CC(C)C[C@@H](C(=O)N1C[C@]2(C[C@H]1C#N)C(=O)Nc1ccccc12)N(C)C(=O)c1cc(OC2CC2)c2ncccc2c1 [Example 312] | 100 to 1000
CC(C)C[C@@H](C(=O)N1C[C@]2(C[C@H]1C#N)C(=O)Nc1ccccc12)N(C)C(=O)c1ccc2c(=O)[nH]ccc2c1 [Example 276] | < 100
CC(C)C[C@@H](C(=O)N1C[C@]2(C[C@H]1C#N)C(=O)Nc1ccccc12)N(C)C(=O)c1ccc2cnccc2c1 [Example 216] | < 100
CC(C)C[C@@H](C(=O)N1C[C@]2(C[C@H]1C(O)S(=O)(=O)O)C(=O)Nc1ccccc12)N(C)C(=O)c1cc2c(F)cc(F)c(F)c2[nH]1 (some centres unmarked) [Example 154] | < 100
CC(C)(C)C[C@H](NC(=O)c1cc2c(F)c(F)ccc2[nH]1)C(=O)N1C[C@]2(C[C@H]1C#N)C(=O)Nc1ccccc12 [Example 20] | < 100
CN(C(=O)C1(c2ccccn2)CC1)[C@@H](CC(C)(C)F)C(=O)N1C[C@]2(C[C@H]1C#N)C(=O)Nc1ccc(Cl)cc12 [Example 478] | 100 to 1000
CC(C)C[C@@H](C(=O)N1C[C@]2(C[C@H]1C#N)C(=O)Nc1ccccc12)N(C)C(=O)c1cc2c(Cl)cccc2[nH]1 [Example 65] | < 100
CC(C)C[C@@H](C(=O)N1C[C@]2(C[C@H]1C#N)C(=O)Nc1ccccc12)N(C)C(=O)CCc1ccccc1 [Example 227] | < 100
CC(C)C[C@@H](C(=O)N1C[C@]2(C[C@H]1C#N)C(=O)Nc1ccccc12)N(C)C(=O)[C@@H](c1cn(C)nn1)C(C)C [Example 350] | 100 to 1000
CC(C)C[C@@H](C(=O)N1C[C@]2(C[C@H]1C#N)C(=O)Nc1ccccc12)N(C)C(=O)c1cn(C)cn1 [Example 201] | < 100
Cc1cccc(CC(=O)N(C)[C@@H](CC(C)(C)F)C(=O)N2C[C@]3(C[C@H]2C#N)C(=O)Nc2ccc(Cl)cc23)n1 [Example 487] | 100 to 1000
CC(C)C[C@@H](C(=O)N1C[C@]2(C[C@H]1C(=O)CO)C(=O)Nc1ccccc12)N(C)C(=O)c1cc2c(F)cc(F)c(F)c2[nH]1 [Example 158] | 100 to 1000
COc1cccc2[nH]c(C(=O)N[C@@H](CC(C)C)C(=O)N3C[C@]4(C[C@H]3C#N)C(=O)N(C)c3ccccc34)cc12 [Example 120] | > 1000
COc1ccc(C(=O)N(C)[C@@H](CC(C)C)C(=O)N2C[C@]3(C[C@H]2C#N)C(=O)Nc2ccccc23)cc1F [Example 182] | < 100
CC(C)C[C@@H](C(=O)N1C[C@]2(C[C@H]1C#N)C(=O)Nc1ccccc12)N(C)C(=O)c1ccc2ncc(C(F)(F)F)cc2c1 [Example 237] | < 100
CC(C)C[C@@H](C(=O)N1C[C@]2(C[C@H]1C#N)C(=O)Nc1ccccc12)N(C)C(=O)OCc1ccccc1 [Example 39] | > 1000
COc1cccc2[nH]c(C(=O)N[C@@H](CC3CCC3)C(=O)N3C[C@]4(C[C@H]3C#N)C(=O)Nc3ccccc34)cc12 [Example 17] | < 100

Compound | EC50 [nM]
CC(C)C[C@@H](C(=O)N1C[C@]2(C[C@H]1C#N)C(=O)Nc1ccccc12)N(C)C(=O)c1cncc(C(F)(F)F)c1 [Example 195] | < 100
CC(C)C[C@@H](C(=O)N1C[C@]2(C[C@H]1C#N)C(=O)Nc1ccc(-n3cc(C4CC4)nn3)cc12)N(C)C(=O)c1cc2c(F)cc(F)cc2[nH]1 [Example 505, N-((S)-1-((3R,5'S)-5'-cyano-5-(4-cyclopropyl-1H-1,2,3-triazol-1-yl)-2-oxospiro[indoline-3,3'-pyrrolidin]-1'-yl)-4-methyl-1-oxopentan-2-yl)-4,6-difluoro-N-methyl-1H-indole-2-carboxamide] | < 100
Cc1ccc2cc(C(=O)N(C)[C@@H](CC(C)C)C(=O)N3C[C@]4(C[C@H]3C#N)C(=O)Nc3ccccc34)ccc2n1 [Example 234] | < 100
COc1cccc2[nH]c(C(=O)N[C@@H](CC3CC3)C(=O)N3C[C@]4(C[C@H]3C#N)C(=O)Nc3ccccc34)cc12 [Example 19] | < 100
[2H]C([2H])([2H])N(C(=O)c1nc(-c2ccccc2)c[nH]1)[C@@H](CC(C)(C)C)C(=O)N1C[C@]2(C[C@H]1C#N)C(=O)Nc1ccccc12 [Example 376] | < 100
CN(C(=O)[C@H](O)Cc1ccc(F)cc1)[C@@H](CC1CC1)C(=O)N1C[C@]2(C[C@H]1C#N)C(=O)Nc1ccccc12 [Example 423] | < 100
CC(C)C[C@@H](C(=O)N1C[C@]2(C[C@H]1C#N)C(=O)Nc1ccccc12)N(C)C(=O)c1ccc2nccc(Br)c2c1 [Example 274] | < 100
COc1cccc2[nH]c(C(=O)N(C)[C@@H](CC(C)(C)C)C(=O)N3C[C@]4(C[C@H]3C#N)C(=O)Nc3ccccc34)cc12 [Example 85] | < 100
CC(C)(C)C[C@H](NC(=O)OCc1ccccc1)C(=O)N1C[C@]2(C[C@H]1C#N)C(=O)Nc1ccccc12 [Example 5] | 100 to 1000
CC(C)C[C@@H](C(=O)N1C[C@]2(C[C@H]1C#N)C(=O)Nc1ccccc12)N(C)C(=O)c1ccc(F)c(Cl)c1 [Example 63] | > 1000
CC(C)C[C@@H](C(=O)N1C[C@]2(C[C@H]1C#N)C(=O)Nc1ccccc12)N(C)C(=O)c1cnccn1 [Example 200] | < 100
CC(C)C[C@@H](C(=O)N1C[C@]2(C[C@H]1C#N)C(=O)Nc1ccccc12)N(C)C(=O)c1cc(OC2CC2)n2nc(C3CC3)cc2c1 [Example 315] | 100 to 1000
CC(C)C[C@@H](C(=O)N1C[C@]2(C[C@H]1C#N)C(=O)Nc1ccccc12)N(C)C(=O)c1cnn(-c2ccccc2C(F)(F)F)c1 [Example 353] | < 100
N#C[C@@H]1C[C@@]2(CN1C(=O)[C@H](Cc1ccc(F)cc1)NC(=O)c1cc3c(F)cc(F)cc3[nH]1)C(=O)Nc1ccc(Cl)cc12 [Example 452] | 100 to 1000
CC(C)N(C(=O)OC(C)(C)C)[C@@H](Cc1ccccc1)C(=O)N1C[C@]2(C[C@H]1C#N)C(=O)Nc1ccccc12 [Example 161] | > 1000
CC(C)C[C@@H](C(=O)N1C[C@]2(C[C@H]1C#N)C(=O)Nc1ccccc12)N(C)C(=O)c1cc2cccnc2cc1OC(F)F [Example 253] | < 100
COc1cccc2[nH]c(C(=O)N[C@@H](CC3CCCCC3)C(=O)N3C[C@]4(C[C@H]3C#N)C(=O)Nc3ccccc34)cc12 [Example 13] | < 100
COc1ccc(C(=O)N(C)[C@@H](CC(C)C)C(=O)N2C[C@]3(C[C@H]2C#N)C(=O)Nc2ccccc23)cc1C(F)(F)F [Example 181] | < 100
CCCOC[C@H](NC(=O)c1cc2c(OC)cccc2[nH]1)C(=O)N1C[C@]2(C[C@H]1C#N)C(=O)Nc1ccccc12 [Example 126] | < 100

Compound | EC50 [nM]
CC(C)C[C@@H](C(=O)N1C[C@]2(C[C@H]1C#N)C(=O)Nc1ccccc12)N(C(=O)C(F)(F)F)C(C)C [Example 432] | > 1000
CC(C)C[C@@H](C(=O)N1C[C@]2(C[C@H]1C#N)C(=O)Nc1ccccc12)N(C)C(=O)COc1ccccc1 [Example 229] | < 100
CN(C(=O)c1cc2c(F)cccc2[nH]1)[C@@H](CC1CC1)C(=O)N1C[C@]2(C[C@H]1C#N)C(=O)Nc1ccccc12 [Example 116] | < 100
CC(C)C[C@@H](C(=O)N1C[C@]2(C[C@H]1C#N)C(=O)Nc1ccccc12)N(C)C(=O)c1ccc(OC(F)(F)F)c(F)c1 [Example 179] | < 100
CC(C)C[C@@H](C(=O)N1C[C@]2(C[C@H]1C#N)C(=O)Nc1ccccc12)N(C)C(=O)c1cc2ccc(Br)cc2cn1 [Example 236] | < 100
CC(C)C[C@@H](C(=O)N1C[C@]2(C[C@H]1C#N)C(=O)Nc1ccccc12)N(C)C(=O)c1cc(F)c2nn(C3CC3)cc2c1 [Example 311] | < 100
CC(C)C[C@@H](C(=O)N1C[C@]2(C[C@H]1C#N)C(=O)Nc1ccccc12)N(C)C(=O)c1nc2c(F)cc(F)cc2[nH]1 [Example 269] | < 100
COc1ccc(C(=O)N(C)[C@@H](CC(C)C)C(=O)N2C[C@]3(C[C@H]2C#N)C(=O)Nc2ccccc23)nc1 [Example 193] | < 100
CC(C)C[C@@H](C(=O)N1C[C@]2(C[C@H]1C=O)C(=O)Nc1ccccc12)N(C)C(=O)c1cc2c(F)cc(F)c(F)c2[nH]1 [Example 150] | < 100
Cc1cc(F)c(C(=O)N(C)[C@@H](CC(C)C)C(=O)N2C[C@]3(C[C@H]2C#N)C(=O)Nc2ccccc23)cc1-c1cnn(C2CC2)c1 [Example 342] | 100 to 1000
CC(C)(C)C[C@H](NC(=O)c1cn(C2CCC2)nn1)C(=O)N1C[C@]2(C[C@H]1C#N)C(=O)Nc1ccccc12 [Example 148] | < 100
[2H]C([2H])([2H])N(C(=O)c1cc(OC(F)(F)F)c2ncccc2c1)[C@@H](CC(C)(C)C)C(=O)N1C[C@]2(C[C@H]1C#N)C(=O)Nc1ccccc12 [Example 382] | < 100
CN(C(=O)c1cn(C(C)(C)C)nn1)[C@@H](CC1CC1)C(=O)N1C[C@]2(C[C@H]1C#N)C(=O)Nc1ccccc12 [Example 402] | < 100
CN(C(=O)C1(c2ccncc2)CC1)[C@@H](CC(C)(C)F)C(=O)N1C[C@]2(C[C@H]1C#N)C(=O)Nc1ccc(Cl)cc12 [Example 473, N-((S)-1-((3R,5'S)-5-chloro-5'-cyano-2-oxospiro[indoline-3,3'-pyrrolidin]-1'-yl)-4-fluoro-4-methyl-1-oxopentan-2-yl)-N-methyl-1-(pyridin-4-yl)cyclopropane-1-carboxamide] | 100 to 1000
CC(C)(C)C[C@H](NC(=O)c1cc(Cl)c2ncccc2c1)C(=O)N1C[C@]2(C[C@H]1C#N)C(=O)Nc1ccccc12 [Example 138] | < 100
[2H]C([2H])([2H])N(C(=O)Cc1ccncc1)[C@@H](CC(C)(C)F)C(=O)N1C[C@]2(C[C@H]1C#N)C(=O)Nc1ccc(Cl)cc12 [Example 474] | 100 to 1000
CC(C)(C)C[C@H](NC(=O)c1cc2c(F)cccc2[nH]1)C(=O)N1C[C@]2(C[C@H]1C#N)C(=O)Nc1ccccc12 [Example 21] | < 100
COc1cccc2[nH]c(C(=O)N(C)[C@@H](CC(C)C)C(=O)N3C[C@]4(C[C@H]3C#N)C(=O)N(C)c3ccccc34)cc12 [Example 121] | 100 to 1000
